From paper PMC5996281, “Salinity Tolerance of Two Potato Cultivars (Solanum tuberosum) Correlates With Differences in Vacuolar Transport Activity” (Frontiers in Plant Science, 2018)
One block for each compound: values may come before it.

Assays:
[1] = tested on: T1, V-H^+-ATPase (cv. Mozart); experiment: ACMA fluorescence quench, initial rate of H+ pumping in tonoplast vesicles; assay type: biochemical, Solanum tuberosum; conditions: 10 mM Mops-TRIS pH 7.0, 5 mM MgCl2, 100 mM KCl; vesicles from control plants (0 mM NaCl)
T1 construct: gene VHA-A; subunit A 69 kDa on blot; with V-type proton ATPase 16 kDa proteolipid subunit; V-type proton ATPase subunit a

[2] = tested on: T2, V-H^+-ATPase (cv. Desiree); experiment: as above; assay type: biochemical, Solanum tuberosum; conditions: 10 mM Mops-TRIS pH 7.0, 5 mM MgCl2, 100 mM KCl; vesicles from control plants (0 mM NaCl)
T2 construct: gene VHA-A; subunit A 69 kDa on blot; with V-type proton ATPase 16 kDa proteolipid subunit; V-type proton ATPase subunit a

[3] = tested on: T3, V-H^+-PPase (cv. Desiree); conditions: 10 mM Mops-TRIS pH 7.0, 5 mM MgCl2, 100 mM KCl; vesicles from control plants (0 mM NaCl)
T3 construct: gene StVP1

[4] = tested on: T4, V-H^+-PPase (cv. Mozart); conditions: 10 mM Mops-TRIS pH 7.0, 5 mM MgCl2, 100 mM KCl; vesicles from control plants (0 mM NaCl)
T4 construct: gene StVP1

[5] = molecular target: T5, V-H^+-ATPase; experiment: ACMA fluorescence quench, ATP-driven H+ pumping in tonoplast vesicles; assay type: biochemical, Solanum tuberosum; conditions: 1 mM Mg ATP, 10 mM Mops-TRIS pH 7.0, 5 mM MgCl2, 100 mM KCl; inhibition; cultivar not told
T5 construct: gene VHA-c; native V1Vo complex in tonoplast-enriched leaf vesicles; with V-type proton ATPase catalytic subunit A; V-type proton ATPase subunit B

Km [1]: 28 µM | Km [2]: 81 µM
SMILES: Nc1ncnc2c1ncn2[C@@H]1O[C@H](COP(=O)(O)OP(=O)(O)OP(=O)(O)O)[C@@H](O)[C@H]1O [ATP]

Km [3]: 7.3 ± 1.1 µM | Km [4]: 9.6 ± 0.8 µM
SMILES: O=P(O)(O)OP(=O)(O)O [PPi]

SMILES: CO/C1=C\C(C)=C\[C@@H](C)[C@@H](O)[C@@H](C)C/C(C)=C/C=C/[C@H](OC)[C@@H]([C@@H](C)[C@@H](O)[C@H](C)[C@@]2(O)C[C@@H](O)[C@H](C)[C@@H](C(C)C)O2)OC1=O [bafilomycin]
EC50 [5]: 0.2 nM
